Reference: patent US8278345B2, “Inhibitors of glutaminyl cyclase” (Probiodrug AG, priority 2006, dated 2012)

molecular target: hQC (Homo sapiens, UniProt Q16769); assay: Inhibitor assay for glutaminyl cyclase activity (fluorometric, H-Gln-βNA / H-Gln-AMC); format: biochemical; details: compound from preparative synthesis, purified; read-out: IC50 hQC
Experimental: All measurements were performed with a BioAssay Reader HTS-7000Plus for microplates (Perkin Elmer) at 30° C. QC activity was evaluated fluorometrically using H-Gln-βNA. The samples consisted of 0.2 mM fluorogenic substrate, 0.25 U pyroglutamyl aminopeptidase (Unizyme, Hørsholm, Denmark) in 0.2 M Tris/HCl, pH 8.0 containing 20 mM EDTA and an appropriately diluted aliquot of QC in a final volume of 250 μl. Excitation/emission wavelengths were 320/410 nm. The assay reactions were initiated by addition of glutaminyl cyclase. QC activity was determined from a standard curve of β-naphthylamine under assay conditions. One unit is defined as the amount of QC catalyzing the formation of 1 μmol pGlu-βNA from H-Gln-βNA per minute under the described conditions.
In a second fluorometric assay, QC activity was determined using H-Gln-AMC as substrate. Reactions were carried out at 30° C. utilizing the NOVOStar reader for microplates (BMG labtechnologies). The samples consisted of varying concentrations of the fluorogenic substrate, 0.1 U pyroglutamyl aminopeptidase (Qiagen) in 0.05 M Tris/HCl, pH 8.0 containing 5 mM EDTA and an appropriately diluted aliquot of QC in a final volume of 250 μl. Excitation/emission wavelengths were 380/460 nm. The assay reactions were initiated by addition of glutaminyl cyclase. QC activity was determined from a standard curve of 7-amino-4-methylcoumarin under assay conditions. The kinetic data were evaluated using GraFit sofware.
For inhibitor testing, the sample composition was the same as described above, except of the putative inhibitory compound added. For a rapid test of QC-inhibition, samples contained 4 mM of the respective inhibitor and a substrate concentration at 1 KM. For detailed investigations of the inhibition and determination of Ki-values, influence of the inhibitor on the auxiliary enzymes was investigated first. In every case, there was no influence on either enzyme detected, thus enabling the reliable determination of the QC inhibition. The inhibitory constant was evaluated by fitting the set of progress curves to the general equation for competitive inhibition using GraFit software.

hQC, sequence (Q16769 29-361): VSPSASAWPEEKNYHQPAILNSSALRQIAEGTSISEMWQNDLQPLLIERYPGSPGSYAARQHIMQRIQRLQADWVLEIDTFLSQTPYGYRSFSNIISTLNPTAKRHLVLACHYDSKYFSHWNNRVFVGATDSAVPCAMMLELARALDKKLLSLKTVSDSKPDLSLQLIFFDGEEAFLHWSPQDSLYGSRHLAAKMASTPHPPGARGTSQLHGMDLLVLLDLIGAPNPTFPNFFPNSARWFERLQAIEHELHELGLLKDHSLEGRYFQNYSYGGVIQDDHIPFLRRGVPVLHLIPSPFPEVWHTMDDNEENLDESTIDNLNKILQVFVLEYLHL

Row | IC50 [µM] | Compound
1 | 0.214 | Cc1ccc(C2C(c3ccc(O)cc3)=C(O)C(=O)N2CCCn2ccnc2)cc1C (stereo not drawn) [Compound 158, 5-(3,4-Dimethyl-phenyl)-3-hydroxy-4-(4-hydroxy-phenyl)-1-(3-imidazol-1-yl-propyl)-1,5-dihydro-pyrrol-2-one]
2 | 0.0133 | O=C(C1=C(O)C(=O)N(c2ccc3[nH]cnc3c2)C1c1ccc(Cl)c(Cl)c1)C1CCCCC1 (stereo not drawn) [Compound 372, 1-(1H-Benzoimidazol-5-yl)-4-cyclohexanecarbonyl-5-(3,4-dichloro-phenyl)-3-hydroxy-1,5-dihydro-pyrrol-2-one]
3 | 0.344 | O=C1C(O)=C(c2ccc(O)cc2)C(c2ccccc2F)N1CCCn1ccnc1 (stereo not drawn) [Compound 180, 5-(2-Fluoro-phenyl)-3-hydroxy-4-(4-hydroxy-phenyl)-1-(3-imidazol-1-yl-propyl)-1,5-dihydro-pyrrol-2-one]

same assay, conditions: read-out: IC50

Row | Compound | IC50 [µM]
4 | Cc1ccc(C2C(c3ccc(O)cc3)=C(O)C(=O)N2CCCn2ccnc2)cc1C (stereo not drawn) [Compound 158, 5-(3,4-Dimethyl-phenyl)-3-hydroxy-4-(4-hydroxy-phenyl)-1-(3-imidazol-1-yl-propyl)-1,5-dihydro-pyrrol-2-one] | 0.04
5 | CC1=C(O)C(=O)N(CCCn2ccnc2)C1c1ccccc1F (stereo not drawn) [Compound 51, 5-(2-Fluoro-phenyl)-3-hydroxy-1-(3-imidazol-1-yl-propyl)-4-methyl-1,5-dihydro-pyrrol-2-one] | 1.3
6 | O=C1C(O)=C(c2c[nH]c3ccccc23)C(c2ccco2)N1CCCn1ccnc1 (stereo not drawn) [Compound 140, 5-Furan-2-yl-3-hydroxy-1-(3-imidazol-1-yl-propyl)-4-(1H-indol-3-yl)-1,5-dihydro-pyrrol-2-one] | 0.4
7 | CCC1=C(O)C(=O)N(CCCn2ccnc2)C1c1ccccc1 (stereo not drawn) [Compound 236, 4-Ethyl-3-hydroxy-1-(3-imidazol-1-yl-propyl)-5-phenyl-1,5-dihydro-pyrrol-2-one] | 1.3
8 | CCCC(=O)C1=C(O)C(=O)N(c2ccc3[nH]cnc3c2)C1c1ccc2cccc(O)c2n1 (stereo not drawn) [Compound 368, 1-(1H-Benzoimidazol-5-yl)-4-butyryl-3-hydroxy-5-(8-hydroxy-quinolin-2-yl)-1,5-dihydro-pyrrol-2-one] | 0.004
9 | CC1C(c2ccc(O)cc2)=C(O)C(=O)N1CCCn1ccnc1 (stereo not drawn) [Compound 160, 3-Hydroxy-4-(4-hydroxy-phenyl)-1-(3-imidazol-1-yl-propyl)-5-methyl-1,5-dihydro-pyrrol-2-one] | 0.4
10 | O=C1C(O)=C(c2c[nH]c3ccccc23)C(c2cc[nH]n2)N1CCCn1ccnc1 (stereo not drawn) [Compound 116, 3-Hydroxy-1-(3-imidazol-1-yl-propyl)-4-(1H-indol-3-yl)-5-(1H-pyrazol-3-yl)-1,5-dihydro-pyrrol-2-one] | 0.4
11 | CCCCCC1=C(O)C(=O)N(c2ccc3[nH]cnc3c2)C1c1ccco1 (stereo not drawn) [Compound 456, 1-(1H-Benzoimidazol-5-yl)-5-furan-2-yl-3-hydroxy-4-pentyl-1,5-dihydro-pyrrol-2-one] | 4.63
12 | CCC/C=C/C1C(c2ccc(O)cc2)=C(O)C(=O)N1CCCn1ccnc1 (stereo not drawn) [Compound 149, 3-Hydroxy-4-(4-hydroxy-phenyl)-1-(3-imidazol-1-yl-propyl)-5-(pent-1-enyl)-1,5-dihydro-pyrrol-2-one] | 1.3
13 | O=C(C1=C(O)C(=O)N(c2ccc3[nH]cnc3c2)C1c1ccc(CO)o1)c1ccsc1 (stereo not drawn) [Compound 263, 1-(1H-Benzoimidazol-5-yl)-3-hydroxy-5-(5-hydroxymethyl-furan-2-yl)-4-(thiophene-3-carbonyl)-1,5-dihydro-pyrrol-2-one] | 2.02
14 | CC(C)C1=C(O)C(=O)N(CCCn2ccnc2)C1c1ccc(CO)o1 (stereo not drawn) [Compound 63, 3-Hydroxy-5-(5-hydroxymethyl-furan-2-yl)-1-(3-imidazol-1-yl-propyl)-4-isopropyl-1,5-dihydro-pyrrol-2-one] | 3.1
15 | CCCCCC1=C(O)C(=O)N(CCCn2ccnc2)C1C1CCC=CO1 (stereo not drawn) [Compound 200, 5-(3,4-Dihydro-2H-pyran-2-yl)-3-hydroxy-1-(3-imidazol-1-yl-propyl)-4-pentyl-1,5-dihydro-pyrrol-2-one] | 0.04
16 | O=C(C1=C(O)C(=O)N(c2ccc3[nH]cnc3c2)C1c1c[nH]cn1)C1CCCCC1 (stereo not drawn) [Compound 255, 1-(1H-Benzoimidazol-5-yl)-4-cyclohexanecarbonyl-3-hydroxy-5-(1H-imidazol-4-yl)-1,5-dihydro-pyrrol-2-one] | 2.47
17 | CC1=C(O)C(=O)N(CCCn2ccnc2)C1c1c[nH]c2ccccc12 (stereo not drawn) [Compound 39, 3-Hydroxy-1-(3-imidazol-1-yl-propyl)-5-(1H-indol-3-yl)-4-methyl-1,5-dihydro-pyrrol-2-one] | 0.4
18 | O=C(C1=C(O)C(=O)N(c2ccc3[nH]cnc3c2)C1c1ccc(Cl)c(Cl)c1)C1CCCCC1 (stereo not drawn) [Compound 372, 1-(1H-Benzoimidazol-5-yl)-4-cyclohexanecarbonyl-5-(3,4-dichloro-phenyl)-3-hydroxy-1,5-dihydro-pyrrol-2-one] | 0.4
19 | O=C1C(O)=C(c2ccc(O)cc2)C(c2cc[nH]n2)N1CCCn1ccnc1 (stereo not drawn) [Compound 151, 3-Hydroxy-4-(4-hydroxy-phenyl)-1-(3-imidazol-1-yl-propyl)-5-(1H-pyrazol-3-yl)-1,5-dihydro-pyrrol-2-one] | 0.04
20 | O=C1C(O)=C(c2ccc(O)cc2)C(c2ccccc2F)N1CCCn1ccnc1 (stereo not drawn) [Compound 180, 5-(2-Fluoro-phenyl)-3-hydroxy-4-(4-hydroxy-phenyl)-1-(3-imidazol-1-yl-propyl)-1,5-dihydro-pyrrol-2-one] | 0.04
21 | O=C1C(O)=C(c2cccc(O)c2)C(c2ccc3cccc(O)c3n2)N1c1ccc2[nH]cnc2c1 (stereo not drawn) [Compound 304, 1-(1H-Benzoimidazol-5-yl)-3-hydroxy-4-(3-hydroxy-phenyl)-5-(8-hydroxy-quinolin-2-yl)-1,5-dihydro-pyrrol-2-one] | 0.22
22 | O=C1C(O)=C(c2ccc(O)cc2)C(c2c(O)ccc3ccccc23)N1CCCn1ccnc1 (stereo not drawn) [Compound 170, 3-Hydroxy-5-(2-hydroxy-naphthalen-1-yl)-4-(4-hydroxy-phenyl)-1-(3-imidazol-1-yl-propyl)-1,5-dihydro-pyrrol-2-one] | 1.3
23 | O=C1C(O)=C(c2ccc(O)cc2)C(c2ccccn2)N1CCCn1ccnc1 (stereo not drawn) [Compound 171, 3-Hydroxy-4-(4-hydroxy-phenyl)-1-(3-imidazol-1-yl-propyl)-5-pyridin-2-yl-1,5-dihydro-pyrrol-2-one] | 0.4
24 | CCCCCC1=C(O)C(=O)N(CCCn2ccnc2)C1C (stereo not drawn) [Compound 197, 3-Hydroxy-1-(3-imidazol-1-yl-propyl)-5-methyl-4-pentyl-1,5-dihydro-pyrrol-2-one] | 0.04
25 | CC(C)C1=C(O)C(=O)N(CCCn2ccnc2)C1c1ccco1 (stereo not drawn) [Compound 72, 5-Furan-2-yl-3-hydroxy-1-(3-imidazol-1-yl-propyl)-4-isopropyl-1,5-dihydro-pyrrol-2-one] | 2.2
26 | CC(C)(C)C(=O)C1=C(O)C(=O)N(c2ccc3[nH]cnc3c2)C1 [Compound 465, 1-(1H-Benzoimidazol-5-yl)-4-(2,2-dimethyl-propionyl)-3-hydroxy-1,5-dihydro-pyrrol-2-one] | 6.16

The next lines start with the values.

Row | IC50 [µM] | Compound
27 | 1.48 | CC1=C(O)C(=O)N(c2ccc3[nH]cnc3c2)C1c1ccnc2ccccc12 (stereo not drawn) [Compound 270, 1-(1H-Benzoimidazol-5-yl)-3-hydroxy-4-methyl-5-quinolin-4-yl-1,5-dihydro-pyrrol-2-one]
28 | 4.99 | O=C1C(O)=C(F)C(c2ccccc2F)N1c1ccc2[nH]cnc2c1 (stereo not drawn) [Compound 462, 1-(1H-Benzoimidazol-5-yl)-4-fluoro-5-(2-fluoro-phenyl)-3-hydroxy-1,5-dihydro-pyrrol-2-one]
29 | 1.75 | CC1=C(O)C(=O)N(c2ccc3[nH]cnc3c2)C1c1cnc2ccccc2c1 (stereo not drawn) [Compound 448, 1-(1H-Benzoimidazol-5-yl)-3-hydroxy-4-methyl-5-quinolin-3-yl-1,5-dihydro-pyrrol-2-one]
30 | 9.85 | O=C1C(O)=C(c2cccc(O)c2)C(c2cc[nH]n2)N1c1ccc2[nH]cnc2c1 (stereo not drawn) [Compound 464, 1-(1H-Benzoimidazol-5-yl)-3-hydroxy-4-(3-hydroxy-phenyl)-5-(1H-pyrazol-3-yl)-1,5-dihydro-pyrrol-2-one]
31 | 3.37 | CC1=C(O)C(=O)N(c2ccc3[nH]cnc3c2)C1c1ccc(O)cc1O (stereo not drawn) [Compound 265, 1-(1H-Benzoimidazol-5-yl)-5-(2,4-dihydroxy-phenyl)-3-hydroxy-4-methyl-1,5-dihydro-pyrrol-2-one]
32 | 4.63 | O=C(C1=C(O)C(=O)N(c2ccc3[nH]cnc3c2)C1c1cccc2cccnc12)C1CC1 (stereo not drawn) [Compound 443, 1-(1H-Benzoimidazol-5-yl)-4-cyclopropanecarbonyl-3-hydroxy-5-quinolin-8-yl-1,5-dihydro-pyrrol-2-one]
33 | 3 | O=C(C1=C(O)C(=O)N(c2ccc3[nH]cnc3c2)C1c1ccnc2ccccc12)C1CC1 (stereo not drawn) [Compound 296, 1-(1H-Benzoimidazol-5-yl)-4-cyclopropanecarbonyl-3-hydroxy-5-quinolin-4-yl-1,5-dihydro-pyrrol-2-one]
34 | 3.28 | CC1=C(O)C(=O)N(c2ccc3[nH]cnc3c2)C1c1nccs1 (stereo not drawn) [Compound 326, 1-(1H-Benzoimidazol-5-yl)-3-hydroxy-4-methyl-5-thiazol-2-yl-1,5-dihydro-pyrrol-2-one]
35 | 2.65 | CCCC(=O)C1=C(O)C(=O)N(c2ccc3[nH]cnc3c2)C1c1cccc(C)n1 (stereo not drawn) [Compound 334, 1-(1H-Benzoimidazol-5-yl)-4-butyryl-3-hydroxy-5-(6-methyl-pyridin-2-yl)-1,5-dihydro-pyrrol-2-one]
36 | 1.57 | CCCC(=O)C1=C(O)C(=O)N(c2ccc3[nH]cnc3c2)C1c1ccnc2ccccc12 (stereo not drawn) [Compound 404, 1-(1H-Benzoimidazol-5-yl)-4-butyryl-3-hydroxy-5-quinolin-4-yl-1,5-dihydro-pyrrol-2-one]
